For the experiment, the system named is M2 macrophages differentiated from human monocyte-derived cells (THP-1). The experiment can be described thus: IL-10 inducing ability in M2 macrophages (Human IL-10 ELISA of culture supernatant). It is filed as cell-based. The note with it: Reference Example 1; 500 ng/ml FSL-1, 5000 nM WKYMVm at preparation, final 1/50; 24 hours; n=6. As to the method:
The anti-inflammatory cytokine IL-10 inducing ability in M2 macrophages differentiated from human monocyte-derived cells (THP-1, JCRB Cell Bank) was evaluated by the following procedure, which is a modification of the method described in the literature (BMC Cancer 15:577 (2015)). […]
After the culture, the culture supernatant was collected, and the IL-10 concentration in the supernatant was calculated using Human IL-10 DuoSet ELISA (R&D Systems). […]
Student's t-test was used for statistical processing. […] The results of IL-10 concentration are shown as the average of the values measured in six tests. […]
The IL-10 inducing activity of the test samples was evaluated according to the procedure described in [Reference Example 1] above. […]
The IL-10 induction rate was calculated according to the following formula. […]
A general note: An ELISA detects its analyte on a solid surface through an enzyme-linked reagent.

On to FSL-1, for which the “IL-10 Concentration (pg/mL) Average” value is recorded as 180.8 pg/mL.

The record behind these values is patent US20250205164A1, “FPR2 AGONIST CONTAINING OUTER MEMBRANE VESICLES DERIVED FROM LACTIC ACID BACTERIUM” (ASAHI GROUP HOLDINGS, LTD., priority 2022, published 2025).
